15 molecules from article PMC3472544, “Glycosaminoglycan analogs as a novel anti-inflammatory strategy” (Frontiers in Immunology, 2012) can be followed below.

The target in test [1] is T1, CCL5 (Homo sapiens, UniProt P13501).
T1 construct: made in house
T1 sequence (P13501 24-91): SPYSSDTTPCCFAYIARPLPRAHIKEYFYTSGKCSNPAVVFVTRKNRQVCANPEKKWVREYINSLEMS
The test is described as follows: NMR-based CCL5 binding, Kd from 15N-HSQC titration. The following applies: for Kd: determined by protein NMR, pH 3.2, 30°C; for selective binding to CCL5 in the NMR screen: 206 compound library, 200 μM, HSQC chemical shift changes. As for the experimental part: These molecules were charged, and contained multiple acid groups, such as carboxylates and sulfonates. In addition, many of the molecules were aromatic, to provide some hydrophobicity. The library was pooled into sets containing five compounds and these pools mixed at 200 μM, with an equal concentration of CCL5 at 30°C, and a heteronuclear single quantum coherence (HSQC) spectrum recorded immediately. For pools that induced significant change in the protein chemical shifts, a second round of screening was performed in which each of the five compounds was added individually to the protein solution. […] Dissociation constants were obtained by fitting the recorded chemical shift as a function of increasing ligand concentrations with: (1) δobs=δf+LbΔb −f in which δobs is the observed chemical shift at each point of the titration curve, δf is the chemical shift of the free protein and Δb − f is the difference in chemical shift between free and fully complexed protein.

Test [2] concerns paw thickness after SRBC challenge. As to the kind of experiment: Delayed-type hypersensitivity (DTH) model, SRBC. The test is classed as in vivo, BALB/c mice. The following applies: for inhibition of paw swelling: oligosaccharides 10 mg/kg s.c. at −30 min and +8 h, dexamethasone by oral gavage 30 min before challenge, paw thickness at 21 h. As for the experimental part:
Female BALB/c mice were immunized with 2 × 10^6 sheep red blood cells (SRBC) by subcutaneous route (s.c.) at the base of the tail. Five days later mice were challenged with an s.c. injection of 2 × 10^6 SRBC into the softpaw of the left hindpaw. The paw thickness was measured 21 h later and the difference calculated based on values obtained before challenge. MHxS, NisS, and StachS were injected s.c. at a dose of 10 mg/kg, 30 min before and 8 h after challenge. Vehicle was 0.02% BSA diluted in PBS. The reference compound, dexamethasone, was diluted in saline and administered by oral gavage 30 min before challenge. Group sizes were 6 for sham and 8 for all other groups.
Figure 5 Inhibition of delayed-type hypersensitivity. Immunization was performed by s.c. administration of SRBC, followed by a challenge in the hindpaw 5 days later. The persulfated oligosaccharides (10 mg/kg) were administered 30 min prior and 8 h after the challenge. Dexamethasone was used as a positive control, and paw thickness was measured 21 h following the challenge. The statistical differences vs. the control group (mice challenged with SRBC and treated with vehicle for the compounds 0.02% BSA diluted in PBS) are shown whenever present and indicated by ^*P <0.05>; ^***P < 0.001. TEXT PRINTED IN THE PICTURE: dexamethasone: 47% *** | MHxS: 39% *** | NisS: 20% * | StachS: 41% ***

The target of test [3] is T2, CCL5 binding to heparin (Homo sapiens, UniProt P13501).
T2 sequence (P13501 24-91): T1 sequence (P13501 24-91)
The test is described as follows: Immobilized heparin competition binding assay ([125I]-CCL5 on heparin-Sepharose beads). The following applies: [125I]-CCL5 0.05 nM, 4 h, read-out: IC50 for the inhibition of CCL5 binding to heparin. The protocol: Competition experiments were performed as described elsewhere (Severin et al., [2010]). Briefly, heparin-Sepharose beads (Sepharose beads or binding buffer as a background control) and increasing amounts of antagonist were added to each well of a 96 well filter plate. [^125I]-CCL5, was added last, to reach a final concentration of 0.05 nM. The plates were incubated on a shaker at room temperature for 4 h. Each experiment was performed in triplicate, and the results are given as the mean of the three assays.

The test system of test [4] is leukocyte recruitment into the synovial (knee) cavity. As to the kind of experiment: Antigen-induced arthritis (AIA) model, mBSA. The following applies: 50 μg s.c. immediately after mBSA; cells counted at 24 h. The test is classed as in vivo, mice. The protocol:
Induction of disease was performed by injection of 10 μg methylated bovine serum albumin (mBSA) as a 10 μL injection into the synovial cavity. Test compounds, at a total dose of 50 μg were injected in a total volume of 200 μL subcutaneously immediately after mBSA administration. Group sizes were 4–6 animals. Total leukocytes (A), neutrophils (B), and mononuclear cells (C) in the synovial cavity were enumerated 24 h after mBSA injection (Sachs et al., [2011]).
Figure 6 Inhibition of antigen induced arthritis. An injection of mBSA into the synovial cavity was used to induce disease. 50 μg of the inhibitors were administered s.c. immediately after the mBSA injection, and the cells in the synovial cavity were enumerated 24 h later. (A) Total cells; (B) […]; (C) mononuclear cells. ^*P < 0.05.

In test [5] the test system is citrated plasma from healthy human blood donors. The test is described as follows: Anti-coagulation assay: Activated Partial Thromboplastin Time (APTT). The following applies: calibrated against heparin standard curve, samples at 1 mg/ml (MHxS 0.1 mg/ml). The protocol: Activated Partial Thromboplastin Time (APTT) assays were performed by GlycoMar. 10 mg/ml stock solutions of NisS, StachS, and MHxS, were prepared using dH2O and stored at −20°C until use. Samples were tested at 1 mg/ml. All further dilutions were in dH2O. Prior to each assay, a calibration curve of heparin ranging from 0 to 10 IU/ml was prepared using 5th International Standard Heparin. (GlycoMar ID:92, batch 97/578, Expiry 21SEP10). Fresh human blood from healthy human blood donors was collected into S-Monovette Coagulation tubes from Sarstedt. Nine parts of freshly drawn venous blood were collected into one part trisodium citrate (0.106 M). Plasma was obtained by centrifugation at 1500 × g for 10 min. Each of the carbohydrate samples was diluted and tested at 1 mg/ml in the first instance. MHxS was subsequently tested at 0.1 mg/ml to be within the time frame of the standard curve. The APTT assay was run on an ACL 9000 Coagulation Analyzer. The coagulation time of HemosIL Normal Control (cat no. 0020003110) was checked. Samples, standards and controls were mixed 1:10 with citrated plasma in a test tube, loaded into the ACL 9000 carousel and analyzed using the extended APTT run program.

In turn, `O=C(O)c1ccccc1O` [Molecule 4] had a dissociation constant Kd in test [1] of 350 µM.
In test [1], `O=S(=O)(O)c1cc(O)ccc1O` [Molecule 5] had a Kd greater than 500 µM.
In the case of `Nc1ccc(O)c(S(=O)(=O)O)c1` [Molecule 6], in test [1], the Kd came out at 500 µM.
Still for that read-out and setting: as for `Nc1cc(C(=O)O)c(O)c(S(=O)(=O)O)c1` [Molecule 7], the figure is 35 µM.
`CC(=O)Nc1cc(C(=O)O)c(O)c(S(=O)(=O)O)c1` [Molecule 8]: in test [1], the “selective binding to CCL5 in the NMR screen” value is “confirmed to be selectively binding to CCL5” and the Kd was found to be 20 µM.
Consider `O=C(O)c1cc(NS(=O)(=O)c2ccc([N+](=O)[O-])cc2)cc(S(=O)(=O)O)c1O` [Molecule 9], for which, in test [1], the Kd turned out to be 300 µM.
As for `O=C(O)c1c(O)ccc(S(=O)(=O)O)c1O` [Molecule 10], in test [1], the “selective binding to CCL5 in the NMR screen” value was “confirmed to be selectively binding to CCL5” and the Kd is 18 µM.
In test [1], `O=C(O)c1cc(S(=O)(=O)O)c(O)cc1O` [Molecule 11] yielded a Kd of less than 10 µM.
The same measure, in the same setting: as for `O=C(O)c1c(O)c(S(=O)(=O)O)cc(S(=O)(=O)O)c1O` [Molecule 12], the figure is 1 to 5 µM.
On the same count and under the same terms, as for `O=S(=O)(O)c1ccccc1O` [Molecule 13], the figure is 50 µM; as for `O=C(O)c1cc(S(=O)(=O)Nc2cc(C(=O)O)c(O)c(S(=O)(=O)O)c2)ccc1O` [Molecule 14], less than 1 µM.
The same measure, in the same setting: as for `CC(=O)Nc1ccc(S(=O)(=O)Nc2cc(C(=O)O)c(O)c(S(=O)(=O)O)c2)cc1` [Molecule 16], the figure is 40 µM.
Consider `C[C@@H]1C[C@H]2[C@@H]3CCC4=CC(=O)C=C[C@]4(C)[C@@]3(F)[C@@H](O)C[C@]2(C)[C@@]1(O)C(=O)CO` [dexamethasone, reference compound], for which the “inhibition of paw swelling” value in test [2] is reported as 47%.
With persulfated Nis [NisS], the “inhibition of paw swelling” value in test [2] came to 20%. Also, in test [3], the IC50 turned out to be 5.89 ± 0.04 µM. Also, in test [4], the “mononuclear cell recruitment into the knee cavity” value is reported as “statistically significant reduction” and the “neutrophil recruitment into the knee cavity” value is reported as “statistically significant reduction”. Also, the “Anticoagulant activity (heparin-equivalent)” value in test [5] worked out at 6.87 ± 3.22 IU/mg.
For persulfated Stach [StachS], in test [2] (10 mg/kg s.c. at −30 min and +8 h), the “reduction of paw thickness compared with dexamethasone” value is “comparable effect”. Further, in test [2], the “inhibition of paw swelling” value amounted to 41%. Besides, the IC50 in test [3] came out at 18.6 ± 4.34 µM. For the same molecule, in test [5], the “Anticoagulant activity (heparin-equivalent)” value worked out at 6.90 ± 2.69 IU/mg.
